Laboratory results: patent US8101761B2, “(E)-N-{3-[1-(8-fluoro-11H-10-OXA-1-AZA-dibenzo [A,D] cyclohepten-5ylidene)-propyl]-phenyl}-methanesulfonamide as glucocorticoid receptor modulator for the treatment of rheumatoid arthritis” (Eli Lilly and Company, priority 2008, dated 2012)

Target: T1, human GR (glucocorticoid receptor) (Homo sapiens, UniProt P04150)
T1 construct: expressed in transfected cells; host or cells: HEK293 (293-GR lysate)
T1 sequence (P04150 1-777): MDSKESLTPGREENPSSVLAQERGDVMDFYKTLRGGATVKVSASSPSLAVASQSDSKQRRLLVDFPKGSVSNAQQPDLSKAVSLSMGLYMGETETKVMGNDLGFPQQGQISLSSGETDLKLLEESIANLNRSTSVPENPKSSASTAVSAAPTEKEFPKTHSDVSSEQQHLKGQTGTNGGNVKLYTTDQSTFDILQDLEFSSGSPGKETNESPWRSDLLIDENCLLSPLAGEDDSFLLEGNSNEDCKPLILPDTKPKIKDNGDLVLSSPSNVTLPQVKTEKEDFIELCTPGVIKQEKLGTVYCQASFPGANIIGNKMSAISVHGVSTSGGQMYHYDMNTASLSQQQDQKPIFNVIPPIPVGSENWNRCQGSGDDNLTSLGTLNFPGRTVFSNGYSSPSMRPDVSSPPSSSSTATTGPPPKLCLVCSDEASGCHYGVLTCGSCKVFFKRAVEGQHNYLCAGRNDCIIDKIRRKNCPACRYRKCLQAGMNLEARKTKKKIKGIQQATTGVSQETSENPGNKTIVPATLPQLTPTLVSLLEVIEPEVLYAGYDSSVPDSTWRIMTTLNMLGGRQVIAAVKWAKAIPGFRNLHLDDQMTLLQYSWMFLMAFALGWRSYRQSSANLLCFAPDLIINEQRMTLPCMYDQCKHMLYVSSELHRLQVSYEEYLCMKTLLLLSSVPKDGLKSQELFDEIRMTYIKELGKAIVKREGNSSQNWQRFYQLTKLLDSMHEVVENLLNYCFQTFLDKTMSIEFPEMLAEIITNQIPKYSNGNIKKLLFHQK
Experiment: Nuclear hormone receptor competition binding assay, GR
Protocol: Cell lysates from human embryonic kidney HEK293 cells overexpressing human GR (glucocorticoid receptor), AR (androgen receptor), MR (mineralocorticoid receptor), or PR (progesterone receptor) are used for receptor-ligand competition binding assays to determine Ki values.
Briefly, steroid receptor competition binding assays are run in a buffer containing 20 mM Hepes buffer (pH=7.6), 0.2 mM EDTA, 75 mM NaCl, 1.5 mM MgCl2, 20% glycerol, 20 mM sodium molybdate, 0.2 mM DTT (dithiothreitol), 20 μg/ml aprotinin and 20 μg/ml leupeptin. Typically, steroid receptor binding assays include radio-labeled ligands, such as 0.3 nM [^3H]-dexamethasone for GR binding, 0.36 nM [^3H]-methyltrienolone for AR binding, 0.25 nM [^3H]-aldosterone for MR binding, and 0.29 nM [^3H]-methyltrienolone for PR binding, and either 20 μg 293-GR lysate, 22 μg 293-AR lysate, 20 μg 293-MR lysate or 40 μg 293-PR lysate per well. Assays are typically run in 96-well format. Competing test compounds are added at various concentrations ranging from about 0.01 nM to 10 μM. Non-specific binding is determined in the presence of 500 nM dexamethasone for GR binding, 500 nM aldosterone for MR binding, or 500 nM methyltrienolone for AR and PR binding. […] After an incubation of 2 hours, plates are read in a Wallac Microbeta counter. […]

CC/C(=C1\c2ccc(F)cc2OCc2ncccc21)c1cccc(NS(C)(=O)=O)c1 [Compound (I), (E)-N-{3-[1-(8-Fluoro-11H-10-oxa-1-aza-dibenzo[a,d]cyclohepten-5-ylidene)-propyl]-phenyl}-methanesulfonamide]
Ki (HEK293 lysate overexpressing human GR, [3H]-dexamethasone, mean of n=7): ~0.2 nM
greater affinity for GR relative to each of human MR, AR, and PR (ratio of binding affinities): ≥ 15 fold
